Assay results reported in patent US10526292B2 (Parion Sciences, Inc., priority 2012, dated 2020).

Tested on: not listed separately
Test: In vitro drug metabolism: hepatocyte stability, dog
Type: in vitro ADME
Conditions: dog hepatocyte suspension, 10 μM, 37° C., up to six hours
Experimental: (§1) The metabolic stability of 9 and 15 was assessed in plasma (rat, rabbit, dog and human) and hepatocytes (rat and dog). Compounds were added either directly to plasma or to hepatocyte suspensions at a final concentration of 2.5 or 10 μM, respectively, and incubated at 37° C. for up to six hours. Aliquots were removed at various time points and quenched. The amount of parent compound was quantified via UPLC-fluorescence analysis. The amount of parent compound remaining was calculated based on the total peak area at the time of sampling divided by the total peak area at initiation.
With `N=C(NCCCCc1ccc(OCCN(CCCN)CCCN)cc1)NC(=O)c1nc(Cl)c(N)nc1N` [Compound 45, 3,5-diamino-N—(N-(4-(4-(2-(bis(3-aminopropyl)amino)ethoxy)phenyl)butyl)carbamimidoyl)-6-chloropyrazine-2-carboxamide] the “Hepatocyte Stability (amount of parent compound remaining)” value was 75%.

Tested on: ExLac rats
Test: Tear volume in rat model of dry eye disease (lacrimal gland excision, ExLac Model)
Type: in vivo, Sprague Dawley rats
Conditions: 5 μl test article solution per eye, tear volume by ZoneQuick thread over 6 h
Experimental: The effects of compounds on tear volume was assessed in a rat model of dry eye disease in which Sprague Dawley rats undergo surgical lacrimal gland excision (ExLac Model) to reduce normal tear volume. The lacrimal excision reduces normal tear volume by ˜50% (Table 2).
Both the ipsilateral and contralateral eyes were dosed with 5 μl of test article solution. Tear production was measured using the ZoneQuick cotton thread with impregnated phenol red dye. The folded end of the thread was held in the lateral-ventral conjunctival cul-de-sac for 10 seconds. The length of tear wicking onto the thread was determined by measuring the length of the thread that changes color from yellow to red. Use of a stereomicroscope was assist in the accurate measurement (recorded in millimeters) of the wicking/color change. Tear volume was assessed pre-dose, and 15, 30, 60, 120, and 360 minute post-dose. For reference, the effect of a saline vehicle is shown for ExLac rats and normal (no lacrimal excision surgery) rats.
With `N=C(N)NCCCC[C@H](NC[C@H](O)[C@@H](O)[C@H](O)[C@H](O)CO)C(=O)NCCCN(CCCNC(=O)[C@H](CCCCNC(=N)N)NC[C@H](O)[C@@H](O)[C@H](O)[C@H](O)CO)CCOc1ccc(CCCCNC(=N)NC(=O)c2nc(Cl)c(N)nc2N)cc1` [Compound 42, (S,R,R,R,2S,2′S)—N,N′-(3,3′-(2-(4-(4-(3-(3,5-diamino-6-chloropyrazine-2-carbonyl)guanidino)butyl)phenoxy)ethylazanediyl)bis(propane-3,1-diyl))bis(6-guanidino-2-((2S,3R,4R,5R)-2,3,4,5,6-pentahydroxyhexylamino)hexanamide)] the “6 h Ocular Hydration (AUC0-6)” value was 52.3.
For `N=C(NCCCCc1ccc(OCCN(CCCN)CCCN)cc1)NC(=O)c1nc(Cl)c(N)nc1N` [Compound 45, 3,5-diamino-N—(N-(4-(4-(2-(bis(3-aminopropyl)amino)ethoxy)phenyl)butyl)carbamimidoyl)-6-chloropyrazine-2-carboxamide], the “6 h Ocular Hydration (AUC0-6)” value was 42.3.
In the case of `COC(=O)NC(=N)NCCCC[C@@H](N)C(=O)NCCCN(CCCNC(=O)[C@H](N)CCCCNC(=N)N)CCOc1ccc(CCCCNC(=N)NC(=O)c2nc(Cl)c(N)nc2N)cc1` [Compound 46, 3,5-diamino-N—(N-(4-(4-((R)-11-amino-17-(3-((R)-2-amino-6-guanidinohexanamido)propyl)-5-imino-3,12-dioxo-2-oxa-4,6,13,17-tetraazanonadecan-19-yloxy)phenyl)butyl)carbamimidoyl)-6-chloropyrazine-2-carboxamide], the “6 h Ocular Hydration (AUC0-6)” value is reported as 39.9.
For `N=C(N)NCCCC[C@H](N)C(=O)NCCCN(CCCN)CCOc1ccc(CCCCNC(=N)NC(=O)c2nc(Cl)c(N)nc2N)cc1` [Compound 51, (S)-3,5-diamino-N—(N-(4-(4-(2-((3-(2-amino-6-guanidinohexanamido)propyl)(3-aminopropyl)amino)ethoxy)phenyl)butyl)carbamimidoyl)-6-chloropyrazine-2-carboxamide], the “6 h Ocular Hydration (AUC0-6)” value was 38.0.
For `N=C(NCCCCc1ccc(OCCN(CCCNC(=O)[C@@H](N)CCCCNC(=O)[C@@H](N)CCCCN)CCCNC(=O)[C@@H](N)CCCCNC(=O)[C@@H](N)CCCCN)cc1)NC(=O)c1nc(Cl)c(N)nc1N` [Compound 59, (S,2S,2′S)—N,N′-(3,3′-(2-(4-(4-(3-(3,5-diamino-6-chloropyrazine-2-carbonyl)guanidino)butyl)phenoxy)ethylazanediyl)bis(propane-3,1-diyl))bis(2-amino-6-((S)-2,6-diaminohexanamido)hexanamide)], the “6 h Ocular Hydration (AUC0-6)” value was 39.7.
With `N=C(NCCCC[C@H](N)C(=O)NCCCN(CCCNC(=O)[C@@H](N)CCCCNC(=N)NC(=O)c1ccccc1)CCOc1ccc(CCCCNC(=N)NC(=O)c2nc(Cl)c(N)nc2N)cc1)NC(=O)c1ccccc1` [Compound 75, N,N′-((7S,19S)-7,19-diamino-13-(2-(4-(4-(3-(3,5-diamino-6-chloropyrazine-2-carbonyl)guanidino)butyl)phenoxy)ethyl)-1,25-diimino-8,18-dioxo-2,9,13,17,24-pentaazapentacosane-1,25-diyl)dibenzamide] the “6 h Ocular Hydration (AUC0-6)” value was 38.2.
In the case of `N=C(N)NCCCC[C@H](N)C(=O)NCCCN(CCCNC(=O)[C@@H](N)CCCCNC(=N)N)CCCN(CCCN(CCCNC(=O)[C@@H](N)CCCCNC(=N)N)CCCNC(=O)[C@@H](N)CCCCNC(=N)N)CCOc1ccc(CCCCNC(=N)NC(=O)c2nc(Cl)c(N)nc2N)cc1` [Compound 82, (2S,2′S,2″S,2′″S)—N,N′,N″,N′″-(3,3′,3″,3′″-(3,3′-(2-(4-(4-(3-(3,5-diamino-6-chloropyrazine-2-carbonyl)guanidino)butyl)phenoxy)ethylazanediyl)bis(propane-3,1-diyl))bis(azanetriyl)tetrakis(propane-3,1-diyl))tetrakis(2-amino-6-guanidinohexanamide)], the “6 h Ocular Hydration (AUC0-6)” value is reported as 49.8.
In the case of `N=C(N)NCCCC[C@@H](N)C(=O)NCCCN(CCCNC(=O)[C@@H](N)CCCCNC(=N)N)CCOc1ccc(CCCCNC(=N)NC(=O)c2nc(Cl)c(N)nc2N)cc1` [Compound 90, 3,5-diamino-N—(N-(4-(4-(2-((3-((R)-2-amino-6-guanidinohexanamido)propyl)(3-((S)-2-amino-6-guanidinohexanamido)propyl)amino)ethoxy)phenyl)butyl)carbamimidoyl)-6-chloropyrazine-2-carboxamide], the “6 h Ocular Hydration (AUC0-6)” value is reported as 49.0.
For `N=C(N)NCCCC[C@H](N)C(=O)NCCCC[C@H](N)C(=O)NCCCC[C@H](N)C(=O)NCCCN(CCCNC(=O)[C@@H](N)CCCCNC(=O)[C@@H](N)CCCCNC(=O)[C@@H](N)CCCCNC(=N)N)CCOc1ccc(CCCCNC(=N)NC(=O)c2nc(Cl)c(N)nc2N)cc1` [Compound 102, (S,S,2S,2′S)—N,N′-(3,3′-(2-(4-(4-(3-(3,5-diamino-6-chloropyrazine-2-carbonyl)guanidino)butyl)phenoxy)ethylazanediyl)bis(propane-3,1-diyl))bis(2-amino-6-((S)-2-amino-6-((S)-2-amino-6-guanidinohexanamido)hexanamido)hexanamide)], the “6 h Ocular Hydration (AUC0-6)” value was 43.2.
In the case of `N=C(N)NCCCC[C@@H](N)C(=O)NCCCN(CCCNC(=O)[C@H](N)CCCCNC(=N)N)CCOc1ccc2cc(CCCCNC(=N)NC(=O)c3nc(Cl)c(N)nc3N)ccc2c1` [Compound 116, (2R,2′R)—N,N′-(3,3′-(2-(6-(4-(3-(3,5-diamino-6-chloropyrazine-2-carbonyl)guanidino)butyl)naphthalen-2-yloxy)ethylazanediyl)bis(propane-3,1-diyl))bis(2-amino-6-guanidinohexanamide)], the “6 h Ocular Hydration (AUC0-6)” value is reported as 40.9.
For `N=C(N)NCCCC[C@@H](N)C(=O)NCCCN(CCCNC(=O)[C@H](N)CCCCNC(=N)N)CCOc1ccc(CCCCNC(=N)NC(=O)c2nc(Cl)c(N)nc2N)c2c1CCCC2` [Compound 133, (2R,2′R)—N,N′-(3,3′-(2-(4-(4-(3-(3,5-diamino-6-chloropyrazine-2-carbonyl)guanidino)butyl)-5,6,7,8-tetrahydronaphthalen-1-yloxy)ethylazanediyl)bis(propane-3,1-diyl))bis(2-amino-6-guanidinohexanamide)], the “6 h Ocular Hydration (AUC0-6)” value was 45.7.
In the case of `N=C(N)NCCCC[C@H](N)C(=O)NCCCN(CCCNC(=O)[C@@H](N)CCCCNC(=N)N)CCCc1ccc(NC(=O)[C@@H](N)Cc2ccc(CCCCNC(=N)NC(=O)c3nc(Cl)c(N)nc3N)cc2)cc1` [Compound 145, (2S,2′S)—N,N′-(3,3′-(3-(4-((S)-2-amino-3-(4-(4-(3-(3,5-diamino-6-chloropyrazine-2-carbonyl)guanidino)butyl)phenyl)propanamido)phenyl)propylazanediyl)bis(propane-3,1-diyl))bis(2-amino-6-guanidinohexanamide)], the “6 h Ocular Hydration (AUC0-6)” value is reported as 44.7.

Tested on: not listed separately
Test: In vitro drug metabolism: hepatocyte stability, rat
Type: in vitro ADME
Conditions: rat hepatocyte suspension, 10 μM, 37° C., up to six hours
Experimental: as §1
In the case of `N=C(NCCCCc1ccc(OCCN(CCCN)CCCN)cc1)NC(=O)c1nc(Cl)c(N)nc1N` [Compound 45, 3,5-diamino-N—(N-(4-(4-(2-(bis(3-aminopropyl)amino)ethoxy)phenyl)butyl)carbamimidoyl)-6-chloropyrazine-2-carboxamide], the “Hepatocyte Stability (amount of parent compound remaining)” value is reported as 83%.
